From patent publication US4130645A (priority 1978, dated 1978)
Where “and” joins values, the source holds several entries; their conditions need not be identical. Identical values can stand only once. Counter-ions that a name gives are not always drawn.

Tests used:
[1] = tested on: Venturia inaequalis (Cke.) Wint.; test: whole plant or invertebrate; assay type: in vivo; details: for pest or weed control at 500 ppm / pest or weed control at 200 ppm: Venturia inaequalis, foliar, read-out: Apple Scab Percent Disease Control; for activity against apple scab: in vivo
[2] = Thermal decomposition point (Differential Thermal Analyzer); assay type: physicochemical; details: 20° C./min, onset method
Procedure: By the procedure of Examples 2 and 5 the following novel salts of 2,3,5,6-tetrachloro-N-nitroaniline are prepared as listed in Table II below. The melting points (uncorrected) of said salts are determined on a Thomas Hoover Capillary Melting Point Apparatus; while the thermal decomposition points of said salts are determined on a Dupont 900 Differential Thermal Analyzer. […] Decompositions are recorded by an exothermic response and the temperatures given in Table II below are assessed by the "onset method".

[3] = tested on: Podosphaera leucotricha (E&E) Salm.; test: whole plant or invertebrate; assay type: in vivo; details: for activity against apple powdery mildew: in vivo; for pest or weed control at 500 ppm: Podosphaera leucotricha, foliar, read-out: Apple Powdery Mildew Percent Disease Control
[4] = tested on: Erysiphe graminis f. sp. hordei; test: whole plant or invertebrate; assay type: in vivo; details: for pest or weed control at 50 ppm / pest or weed control at 100 ppm / pest or weed control at 200 ppm / pest or weed control at 500 ppm: Blumeria graminis, in Hordeum vulgare, foliar, read-out: Barley Powdery Mildew Percent Disease Control; for Barley Powdery Mildew Percent Disease Control: in vivo

O=[N+]([O-])Nc1c(Br)cc(C(F)(F)F)cc1Br [drawing 67]
pest or weed control at 500 ppm [1]: 76%

O=[N+]([O-])Nc1c(Cl)c(Cl)cc(Cl)c1Cl [NH2 (C18 H37)2]
Thermal Decomposition Point [2]: 168 °C

O=[N+]([O-])Nc1c(Cl)c(Cl)cc(Cl)c1Cl [NH2 (CH2C6 H5)2, dibenzylamine salt of 2,3,5,6-tetrachloro-N-nitroaniline]
Thermal Decomposition Point [2]: 183 °C

O=[N+]([O-])Nc1c(Cl)c(Cl)cc(Cl)c1Cl [NH2 (C3 H7)2]
Thermal Decomposition Point [2]: 204 °C

O=[N+]([O-])Nc1c(Cl)c(Cl)cc(Cl)c1Cl [NH3 C16 H33]
Thermal Decomposition Point [2]: 148.5 °C

O=[N+]([O-])Nc1c(Cl)c(Cl)cc(Cl)c1Cl [drawing 23]
Thermal Decomposition Point [2]: 163 °C

O=[N+]([O-])Nc1ccc(Cl)cc1Cl [2,4-dichlorophenylnitramine]
activity against apple scab [1]: active

O=[N+]([O-])Nc1c(Cl)c(Cl)cc(Cl)c1Cl [drawing 24]
Thermal Decomposition Point [2]: 138 °C

Cc1cc([N+](=O)[O-])cc(C)c1N[N+](=O)[O-] [2,6-dimethyl-4-nitro-]
activity against apple powdery mildew [3]: active

O=[N+]([O-])Nc1c(Cl)c(Cl)cc(Cl)c1Cl [NH3 C8 H17]
Thermal Decomposition Point [2]: 163 °C

O=[N+]([O-])Nc1cccc(Cl)c1Cl [drawing 74]
pest or weed control at 500 ppm [3]: 96%

CC(=O)N(c1c(Cl)c(Cl)cc(Cl)c1Cl)[N+](=O)[O-] [drawing 121]
pest or weed control at 50 ppm [4]: 95%
pest or weed control at 100 ppm [4]: 95%
pest or weed control at 200 ppm [4]: 95%
pest or weed control at 500 ppm [4]: 100%

CCC(=O)Nc1cc(Cl)c(N[N+](=O)[O-])c(Cl)c1 [drawing 112]
Barley Powdery Mildew Percent Disease Control [4]: 89%

CN(c1c(Cl)c(Cl)cc(Cl)c1Cl)[N+](=O)[O-]
pest or weed control at 500 ppm [4]: 100%

CC(=O)Nc1cc(Cl)c(N[N+](=O)[O-])c(Cl)c1 [drawing 107]
pest or weed control at 500 ppm [4]: 84%

O=[N+]([O-])Nc1c(Cl)c(Cl)cc(Cl)c1Cl [K]
Thermal Decomposition Point [2]: 272 °C

O=[N+]([O-])Nc1c(Br)cc(C(F)(F)F)cc1Br [drawing 79]
pest or weed control at 500 ppm [3]: 84%

CCC(=O)Nc1cc(Cl)c(N[N+](=O)[O-])c(Cl)c1 [drawing 108]
pest or weed control at 500 ppm [4]: 100%

O=[N+]([O-])Nc1cccc(C(F)(F)F)c1
pest or weed control at 500 ppm [4]: 96%

CS(=O)(=O)c1ccc(N[N+](=O)[O-])cc1 [drawing 93]
pest or weed control at 500 ppm [4]: 100%

O=[N+]([O-])Nc1cccc(Br)c1 [drawing 77]
pest or weed control at 500 ppm [3]: 84%

CC(C)OC(=O)Nc1cc(Cl)c(N[N+](=O)[O-])c(Cl)c1
pest or weed control at 200 ppm [4]: 97%

O=[N+]([O-])Nc1ccc(Cl)c(C(F)(F)F)c1 [drawing 80]
pest or weed control at 500 ppm [3]: 84%

O=[N+]([O-])Nc1c(Cl)c(Cl)cc(Cl)c1Cl [drawing 118]
Barley Powdery Mildew Percent Disease Control [4]: 100%

O=[N+]([O-])Nc1cccc(Cl)c1Cl [2,3-dichlorophenylnitramine]
activity against apple scab [1]: active
activity against apple powdery mildew [3]: active

O=[N+]([O-])Nc1ccc(C(F)(F)F)cc1 [drawing 84]
pest or weed control at 50 ppm [4]: 84%
pest or weed control at 100 ppm [4]: 95%
pest or weed control at 200 ppm [4]: 91%
pest or weed control at 500 ppm [4]: 96%

O=[N+]([O-])Nc1c(Cl)c(Cl)cc(Cl)c1Cl [NH3 C12 H25 -n]
Thermal Decomposition Point [2]: 166 °C

O=[N+]([O-])Nc1c(Cl)c(Cl)cc(Cl)c1Cl [NH(C3 H7)3]
Thermal Decomposition Point [2]: 154 °C

O=[N+]([O-])Nc1c(Cl)cccc1Cl [drawing 91]
pest or weed control at 500 ppm [4]: 100%

CC(C)N(c1c(Br)cccc1Br)[N+](=O)[O-]
pest or weed control at 500 ppm [4]: 100%

Cc1cc([N+](=O)[O-])cc(C)c1N[N+](=O)[O-] [drawing 101]
pest or weed control at 500 ppm [4]: 100%

O=[N+]([O-])Nc1cc(Cl)c(Cl)c(Cl)c1Cl
pest or weed control at 500 ppm [4]: 84%

COC(=O)CN(c1c(Cl)c(Cl)cc(Cl)c1Cl)[N+](=O)[O-] [--CH2 COOCH3]
activity against apple scab [1]: active

Cc1c(Cl)cccc1N[N+](=O)[O-]
pest or weed control at 500 ppm [3]: 84%

O=[N+]([O-])Nc1c(Cl)cccc1Cl [drawing 75]
pest or weed control at 500 ppm [3]: 84%

O=[N+]([O-])Nc1c(Cl)c(Cl)cc(Cl)c1Cl [drawing 69]
pest or weed control at 500 ppm [1]: 76%

CC(C)N(c1c(Cl)c(Cl)cc(Cl)c1Cl)[N+](=O)[O-] [--(CH(CH3)2]
activity against apple scab [1]: active

CCN(c1c(Br)cccc1Br)[N+](=O)[O-]
pest or weed control at 500 ppm [4]: 89%

O=[N+]([O-])Nc1cccc(Cl)c1C(F)(F)F [3-chloro-2-trifluoromethyl-]
activity against apple powdery mildew [3]: active

CC(=O)Nc1cc(Cl)c(N[N+](=O)[O-])c(Cl)c1 [drawing 68]
pest or weed control at 500 ppm [1]: 76%

O=[N+]([O-])Nc1ccc(Cl)cc1Cl [drawing 90]
pest or weed control at 500 ppm [4]: 100%

O=[N+]([O-])Nc1c(Cl)c(Cl)cc(Cl)c1Cl [NH3 CH3]
Thermal Decomposition Point [2]: 183 °C

O=[N+]([O-])Nc1c(Cl)c(Cl)cc(Cl)c1Cl [drawing 21]
Thermal Decomposition Point [2]: 176 °C

O=[N+]([O-])Nc1c(Cl)c(Cl)cc(Cl)c1Cl [NH3 CH2 CH2 NH2]
Thermal Decomposition Point [2]: 208 °C

O=[N+]([O-])Nc1c(Cl)c(Cl)cc(Cl)c1Cl [NH(CH2 CH2 OH)3]
Thermal Decomposition Point [2]: 150 °C

O=[N+]([O-])Nc1c(Cl)c(Cl)cc(Cl)c1Cl [NH3 (CH2)3 NHC12 H25 -n]
Thermal Decomposition Point [2]: 184 °C

O=[N+]([O-])Nc1c(Cl)c(Cl)cc(Cl)c1Cl [NH4]
Thermal Decomposition Point [2]: 178 °C

O=[N+]([O-])Nc1ccc(Cl)c(C(F)(F)F)c1 [4-chloro-3-trifluoromethyl-]
activity against apple powdery mildew [3]: active

CC(=O)N(c1c(Cl)c(Cl)cc(Cl)c1Cl)[N+](=O)[O-] [drawing 83]
pest or weed control at 500 ppm [3]: 92%

O=[N+]([O-])Nc1cccc(Cl)c1Cl [drawing 64]
pest or weed control at 200 ppm [1]: 67%
pest or weed control at 500 ppm [1]: 76%

O=[N+]([O-])Nc1c(Cl)c(Cl)cc(Cl)c1Cl [drawing 123]
Barley Powdery Mildew Percent Disease Control [4]: 98% and 96%

CCc1cccc(CC)c1N[N+](=O)[O-]
pest or weed control at 500 ppm [4]: 100%

O=[N+]([O-])Nc1cccc(Cl)c1Cl [drawing 89]
pest or weed control at 500 ppm [4]: 100%

O=[N+]([O-])Nc1c(Cl)c(Cl)cc(Cl)c1Cl [NHC18 H37 . (CH2 CH2 O)2 H . (CH2 CH2 O)3 H]
Thermal Decomposition Point [2]: 153-157 °C

O=[N+]([O-])N(Cc1ccccc1)c1c(Br)cccc1Br
pest or weed control at 500 ppm [4]: 100%

O=[N+]([O-])Nc1cccc(Br)c1 [3-bromophenylnitramine]
activity against apple powdery mildew [3]: active

O=[N+]([O-])Nc1c(Cl)c(Cl)cc(Cl)c1Cl [drawing 25]
Thermal Decomposition Point [2]: 173 °C

Cc1cc([N+](=O)[O-])cc(C)c1N[N+](=O)[O-] [drawing 78]
pest or weed control at 500 ppm [3]: 84%

O=[N+]([O-])Nc1c(Cl)c(Cl)cc(Cl)c1Cl [drawing 87]
pest or weed control at 50 ppm [4]: 48%
pest or weed control at 500 ppm [4]: 84%
Barley Powdery Mildew Percent Disease Control [4]: 71%

CC(=O)Nc1cc(Cl)c(N[N+](=O)[O-])c(Cl)c1 [2,6-dichloro-4-acetamidophenylnitramine]
activity against apple scab [1]: active

O=[N+]([O-])Nc1c(Cl)c(Cl)cc(Cl)c1Cl [drawing 100]
Barley Powdery Mildew Percent Disease Control [4]: 100% and 95%

O=[N+]([O-])Nc1c(Cl)c(Cl)cc(Cl)c1Cl [NH(CH3)2 . C6 H5, N,N-dimethylaniline salt of 2,3,5,6-tetrachloro-N-nitroaniline]
Thermal Decomposition Point [2]: 128 °C

O=[N+]([O-])Nc1c(Br)cc(C(F)(F)F)cc1Br [drawing 102]
pest or weed control at 200 ppm [4]: 83%
pest or weed control at 500 ppm [4]: 100%

O=[N+]([O-])Nc1c(Cl)c(Cl)cc(Cl)c1Cl [NH3 (CH2)8 CHCH(CH2)7 CH3]
Thermal Decomposition Point [2]: 157 °C

O=[N+]([O-])Nc1c(Cl)c(Cl)cc(Cl)c1Cl [drawing 26]
Thermal Decomposition Point [2]: 203 °C

COC(=O)CN(c1c(Cl)c(Cl)cc(Cl)c1Cl)[N+](=O)[O-] [drawing 122]
pest or weed control at 500 ppm [4]: 84%

CS(=O)(=O)c1ccc(N[N+](=O)[O-])cc1 [4-methylsulfonylphenylnitramine]
activity against apple scab [1]: active

O=[N+]([O-])Nc1c(Cl)cccc1Cl [2,6-dichloro-]
activity against apple powdery mildew [3]: active

O=[N+]([O-])Nc1c(Cl)c(Cl)cc(Cl)c1Cl [2,3,5,6-tetrachlorophenylnitramine N-barium salt]
activity against apple scab [1]: active

O=[N+]([O-])Nc1c(Cl)c(Cl)cc(Cl)c1Cl [NH(C2 H5)3]
Thermal Decomposition Point [2]: 169 °C

O=[N+]([O-])Nc1ccccc1Cl
pest or weed control at 500 ppm [1]: 93%

O=[N+]([O-])Nc1cccc(Br)c1 [drawing 99]
pest or weed control at 500 ppm [4]: 96%

O=[N+]([O-])Nc1c(Cl)c(Cl)cc(Cl)c1Cl [NH2 (C4 H9)2]
Thermal Decomposition Point [2]: 207 °C

N#Cc1ccc(N[N+](=O)[O-])c(Br)c1
pest or weed control at 500 ppm [4]: 100%

O=[N+]([O-])Nc1c(Cl)c(Cl)cc(Cl)c1Cl [drawing 22]
Thermal Decomposition Point [2]: 143 °C

CS(=O)(=O)c1ccc(N[N+](=O)[O-])cc1 [drawing 66]
pest or weed control at 500 ppm [1]: 76%

CN(c1c(Br)cccc1Br)[N+](=O)[O-]
pest or weed control at 500 ppm [4]: 89%

COC(=O)CN(c1c(Cl)c(Cl)cc(Cl)c1Cl)[N+](=O)[O-] [drawing 73]
pest or weed control at 200 ppm [1]: 83%
pest or weed control at 500 ppm [1]: 96%

O=[N+]([O-])Nc1c(Cl)c(Cl)cc(Cl)c1Cl [NH2 (CH2 CH2 OH)2]
Thermal Decomposition Point [2]: 173 °C and 177 °C

O=[N+]([O-])Nc1c(Cl)c(Cl)cc(Cl)c1Cl [NH3 CH2 CH2 OH, ethanolamine salt of 2,3,5,6-tetrachloro-N-nitroaniline]
Thermal Decomposition Point [2]: 203 °C
